Experimental data: PMC6264767 (Molecules, 2011)
Read-outs that look alike come from different tables or passages of the source.

Columns and labels:
[1] = tested on: Vaccinia virus; test: microbe, parasite or virus in culture; format: cell-based; settings: Orthopoxvirus vaccinia, HEL
[2] = tested on: Vesicular stomatitis virus; test: microbe, parasite or virus in culture; format: cell-based; settings: HEL, read-out: EC50 Vesicular stomatitis virus
[3] = tested on: HSV-1 TK^− KOS ACV^r; test: microbe, parasite or virus in culture; format: cell-based, herpes simplex virus-1; settings: Human alphaherpesvirus 1, HEL
[4] = tested on: HSV-2 (G); test: microbe, parasite or virus in culture; format: cell-based, herpes simplex virus type 2; settings: Human alphaherpesvirus 2, HEL
[5] = tested on: HSV-1 (KOS); test: microbe, parasite or virus in culture; format: cell-based, herpes simplex virus type 1; settings: Human alphaherpesvirus 1, HEL
[6] = tested on: HEL cell cultures; settings: for MCC (minimum cytotoxic concentration): human
[7] = tested on: Feline Corona Virus (FIPV); test: microbe, parasite or virus in culture; format: cell-based; settings: Alphacoronavirus 1, CRFK, read-out: EC50 Feline Corona Virus (FIPV)
[8] = tested on: Feline Herpes Virus; test: organism not typed; format: cell-based; settings: CRFK, read-out: EC50 Feline Herpes Virus
[9] = in vitro; settings: cat
[10] = read-out: EC50 HSV-1 TK^− KOS ACV^r
[11] = read-out: inhibitory activity against HSV-1 TK^− KOS (ACV^r), one range given for several viruses
[12] = read-out: inhibitory activity against HSV-2 (G), one range given for several viruses
[13] = read-out: inhibitory activity against HSV-1 (KOS), one range given for several viruses

Structure (SMILES) | melting point | EC50 ([1]; read-out: EC50 Vaccinia virus) | EC50 ([1]; read-out: inhibitory activity against vaccinia virus, one range given for several viruses) | EC50 [2] | EC50 [3, 10] | EC50 [3, 11] | EC50 ([4]; read-out: EC50 HSV-2 (G)) | EC50 [4, 12] | EC50 ([5]; read-out: EC50 HSV-1 (KOS)) | EC50 [5, 13] | MCC (minimum cytotoxic concentration) [6] | EC50 [7] | EC50 [8] | CC50 [9] | cytostatic activity at 100 µM ([6]; 100 µM)
O=c1oc2ccccc2c(O)c1C(c1ccc(Br)cc1)c1c(O)c2ccccc2oc1=O | 267.2 °C | – | – | – | – | – | – | – | – | – | – | – | – | – | –
O=c1oc2ccccc2c(O)c1C(c1cccc(Br)c1)c1c(O)c2ccccc2oc1=O [Compound 3, 3,3′-(3-Bromobenzylidene)-bis-[4-hydroxycoumarin]] | 287 °C | 11 µM | 9 to 12 µM | > 20 µM | 9 µM | 9 to 12 µM | 9 µM | 9 to 12 µM | 9 µM | 9 to 12 µM | – | – | – | – | –
Nc1nc2c(ncn2COCCO)c(=O)[nH]1 [Acyclovir, reference compound] | – | > 250 µM | – | > 250 µM | 20 µM | – | 0.35 µM | – | 0.3 µM | – | >250 µM | – | – | – | –
O=c1oc2ccccc2c(O)c1C(c1ccc([N+](=O)[O-])cc1)c1c(O)c2ccccc2oc1=O [Compound 8, 3,3′-(4-Nitrobenzylidene)-bis-[4-hydroxycoumarin]] | – | > 20 µM | – | > 20 µM | > 20 µM | – | > 20 µM | – | > 20 µM | – | 100 µM | 8.5 µM | 6.9 µM | 41 µM | –
O=c1[nH]c(=O)n([C@H]2C[C@H](O)[C@@H](CO)O2)cc1/C=C/Br [Brivudin, (E)-5-(2-bromovinyl)-2’-deoxyuridine, reference compound] | – | 3.2 µM | – | > 250 µM | 50 µM | – | 182 µM | – | 0.06 µM | – | >250 µM | – | – | – | –
O=c1oc2ccccc2c(O)c1C(c1ccc(F)cc1)c1c(O)c2ccccc2oc1=O [Compound 6, 3,3′-(4-Fluorobenzylidene)-bis-[4-hydroxycoumarin]] | 214.5 °C | – | – | – | – | – | – | – | – | – | – | 7.7 µM | 8.1 µM | 39 µM | –
COc1ccc(OC)c(C(c2c(O)c3ccccc3oc2=O)c2c(O)c3ccccc3oc2=O)c1 [Compound 14, 3,3′-(2,5-Dimethoxybenzylidene)-bis-[4-hydroxycoumarin]] | 181.6 °C | > 100 µM | – | > 100 µM | > 100 µM | – | > 100 µM | – | > 100 µM | – | >100 µM | – | – | – | –
CSc1ccc(C(c2c(O)c3ccccc3oc2=O)c2c(O)c3ccccc3oc2=O)cc1 [Compound 11, 3,3′-(4-Methyltiobenzylidene)-bis-[4-hydroxycoumarin]] | 258.7 °C | > 20 µM | – | > 20 µM | > 20 µM | – | > 20 µM | – | > 20 µM | – | 100 µM | – | – | – | –
O=c1oc2ccccc2c(O)c1C(c1ccc(C(F)(F)F)cc1)c1c(O)c2ccccc2oc1=O [Compound 7, 3,3′-(4-Trifluoromethylbenzylidene)-bis-[4-hydroxycoumarin]] | 271.3 °C | > 4 µM | – | > 4 µM | > 4 µM | – | > 4 µM | – | > 4 µM | – | 20 µM | – | – | – | –
Nc1nc(O)c2ncn(COC(CO)CO)c2n1 [Ganciclovir, 9-[(1,3-dihydroxy-2-propoxy)methyl]guanine, reference compound] | – | > 100 µM | – | > 100 µM | 0.1 µM | – | 0.03 µM | – | 0.025 µM | – | >100 µM | > 100 µM | 4.9 µM | > 100 µM | –
O=c1oc2ccccc2c(O)c1C(c1ccccc1[N+](=O)[O-])c1c(O)c2ccccc2oc1=O [Compound 9, 3,3’-(2-Nitrobenzylidene)-bis-[4-hydroxycoumarin]] | 202 °C | – | – | – | – | – | – | – | – | – | – | 8.3 µM | 14 µM | 34 µM | –
O=c1oc2ccccc2c(O)c1C1c2cc([N+](=O)[O-])ccc2Oc2c1c(=O)oc1ccccc21 (stereo not drawn) [Compound 19, 3-[6-Oxo-(1H)-18-nitrobenzopyrano[4,3-b]benzopyran-7-yl]-4-hydroxycoumarin] | 315.7 °C | > 100 µM | – | > 100 µM | 50 µM | 45 to 50 µM | 45 µM | 45 to 50 µM | 50 µM | 45 to 50 µM | >100 µM | – | – | – | no cytotostatic activity
O=c1oc2ccccc2c(O)c1C(c1ccc(O)c(O)c1)c1c(O)c2ccccc2oc1=O [Compound 13, 3,3′-(3,4-Dihydroxybenzylidene)-bis-[4-hydroxycoumarin]] | 227.5 °C | > 20 µM | – | > 20 µM | > 20 µM | – | > 20 µM | – | > 20 µM | – | 100 µM | – | – | – | –
O=c1oc2ccccc2c(O)c1C(c1ccc(Cl)cc1)c1c(O)c2ccccc2oc1=O [Compound 4, 3,3’-(4-Chlorobenzylidene)-bis-[4-hydroxycoumarin]] | – | – | – | – | – | – | – | – | – | – | – | 9.1 µM | 7.6 µM | 45 µM | –
COc1cc(OC)c2c(c1)Oc1c(c(=O)oc3ccccc13)C2c1c(O)c2ccccc2oc1=O (stereo not drawn) [Compound 20, 3-[6-oxo-(1H)-15,17-dimethoxybenzopyrano[4,3-b]benzopyran-7-yl]-4-hydroxycoumarin] | 287.9 °C | > 20 µM | – | > 20 µM | > 20 µM | – | > 20 µM | – | > 20 µM | – | 100 µM | 6.4 µM | 7.1 µM | 27 µM | –
COc1cc(C(c2c(O)c3ccccc3oc2=O)c2c(O)c3ccccc3oc2=O)cc([N+](=O)[O-])c1O [Compound 15, 3,3′-(4-Hydroxy-3-methoxy-5-nitrobenzylidene)-bis-[4-hydroxycoumarin]] | 199.6 °C | > 100 µM | – | > 100 µM | > 100 µM | – | > 100 µM | – | > 100 µM | – | >100 µM | – | – | – | –
Nc1ccn(C[C@@H](CO)OCP(=O)(O)O)c(=O)n1 [Cidofovir, (S)-1-[3-hydroxy-2-(phosphonyl-methoxy)propyl]cytosine, reference compound] | – | 7.9 µM | – | > 250 µM | 1.5 µM | – | 1.5 µM | – | 0.9 µM | – | >250 µM | – | – | – | –
O=c1oc2ccccc2c(O)c1C(c1ccccc1)c1c(O)c2ccccc2oc1=O [Compound 1, 3,3′-(Benzilidene)-bis-[4-hydroxycoumarin]] | – | – | – | – | – | – | – | – | – | – | – | 7.5 µM | 9.1 µM | 43 µM | –
COc1ccccc1C(c1c(O)c2ccccc2oc1=O)c1c(O)c2ccccc2oc1=O [Compound 5, 3,3′-(2-Methoxybenzylidene)bis[4-hydroxycoumarin]] | – | – | – | – | – | – | – | – | – | – | – | 7.5 µM | 5 µM | 36 µM | –
